Where a name gives a salt, the structure may show the parent alone. Read-outs that look alike come from different tables or passages of the source.
Columns and labels:
F508del CFTR = molecular target: T1, F508del CFTR (Homo sapiens, UniProt P13569, DEL508-508); assay: YFP fluorescence quenching functional assay (iodide influx), HEK293 cells with F508del CFTR and halide sensitive YFP; assay type: cell-based; conditions: for remaining activity at 10 µM: read-out: % YFP quench
T1 construct: expressed in transfected cells; host or cells: HEK293 Griptite cells stably expressing F508del CFTR, transiently transfected with halide-sensitive eYFP
T1 sequence (P13569 with tags, fused parts or gaps DEL508-508): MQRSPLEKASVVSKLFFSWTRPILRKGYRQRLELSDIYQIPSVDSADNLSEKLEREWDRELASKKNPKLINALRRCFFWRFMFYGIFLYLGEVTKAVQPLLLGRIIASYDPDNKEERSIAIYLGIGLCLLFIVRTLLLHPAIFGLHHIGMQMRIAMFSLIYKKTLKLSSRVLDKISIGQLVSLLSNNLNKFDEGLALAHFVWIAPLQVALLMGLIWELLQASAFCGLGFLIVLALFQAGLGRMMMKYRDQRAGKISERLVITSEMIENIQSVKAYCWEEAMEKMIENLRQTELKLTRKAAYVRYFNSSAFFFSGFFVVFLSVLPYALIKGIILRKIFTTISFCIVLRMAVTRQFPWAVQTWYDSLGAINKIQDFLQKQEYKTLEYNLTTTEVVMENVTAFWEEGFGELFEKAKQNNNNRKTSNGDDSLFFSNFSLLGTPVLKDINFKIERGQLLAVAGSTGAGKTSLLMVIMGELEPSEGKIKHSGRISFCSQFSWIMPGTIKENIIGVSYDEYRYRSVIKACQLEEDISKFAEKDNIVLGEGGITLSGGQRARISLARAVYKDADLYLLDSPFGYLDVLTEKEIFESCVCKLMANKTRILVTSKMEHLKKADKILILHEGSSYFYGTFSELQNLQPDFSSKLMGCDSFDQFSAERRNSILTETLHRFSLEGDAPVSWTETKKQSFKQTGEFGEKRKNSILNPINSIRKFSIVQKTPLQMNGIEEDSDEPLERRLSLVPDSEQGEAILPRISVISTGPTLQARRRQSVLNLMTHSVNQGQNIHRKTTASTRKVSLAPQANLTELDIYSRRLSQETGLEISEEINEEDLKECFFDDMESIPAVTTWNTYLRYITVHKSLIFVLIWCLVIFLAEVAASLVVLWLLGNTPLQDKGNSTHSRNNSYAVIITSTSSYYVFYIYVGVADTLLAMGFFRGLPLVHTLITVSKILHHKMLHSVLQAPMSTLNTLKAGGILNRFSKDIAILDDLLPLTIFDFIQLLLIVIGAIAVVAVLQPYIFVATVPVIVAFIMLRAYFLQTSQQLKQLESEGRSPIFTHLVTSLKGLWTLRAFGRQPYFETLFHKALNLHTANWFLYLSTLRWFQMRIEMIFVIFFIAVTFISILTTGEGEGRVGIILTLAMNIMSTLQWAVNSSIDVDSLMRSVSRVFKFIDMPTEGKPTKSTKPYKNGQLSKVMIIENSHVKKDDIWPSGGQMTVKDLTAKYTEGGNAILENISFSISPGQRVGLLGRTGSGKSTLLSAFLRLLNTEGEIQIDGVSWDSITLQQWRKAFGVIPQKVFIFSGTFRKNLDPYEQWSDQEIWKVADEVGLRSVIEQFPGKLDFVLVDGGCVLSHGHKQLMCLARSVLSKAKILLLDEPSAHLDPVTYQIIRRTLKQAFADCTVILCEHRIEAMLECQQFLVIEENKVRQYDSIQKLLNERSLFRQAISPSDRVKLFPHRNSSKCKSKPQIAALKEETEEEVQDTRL
Method: In addition to the MDS compounds, the 1120 Prestwick Library compounds were screened. (See FIGS. 7 to 12.) Of the compounds, one qualified as a “strong” hit, 3 as “medium” hits and 57 as “weak” hits. The Z score for the assay was 0.62. The top 50 hits were further tested in a counter screen in which the halide sensitive fluorescent compound (YFP) was expressed inside cells (Table 2). After incubation with the test compounds the ability of the cells to uptake iodide was measure by decreasing YFP fluorescence. In these cells this can only occur if functional CFTR is present at the cell surface (FIG. 7). The hits were also tested for the appearance of the Band C form of CFTR. […] The functionality of the compounds was further studied by the use of Iodide efflux assays for each compound in both BHK and the more physiologically relevant CFBE cells. […] FIG. 10 is a table of results for the 15 hit compounds which summarizes many experiments. […] The results for the best 15 compounds from the Prestwick Library, or “Prestwick 15”, are shown FIGS. 8, 9 and 10.
Strongly adhesive Human […] Kidney cells stably expressing both the human macrophage scavenger receptor (HEK293 Griptite, Invitrogen) and F508del CFTR were plated in 96-well plates and transiently transfected with pcDNA3 plasmid encoding a halide sensitive variant of eYFP. After 24-48 h later cells were exposed to 10 μM test compound in triplicate and incubated for an additional 24 h. Cells were stimulated for 20 minutes with a in a buffer containing 25 μM forskolin, 45 μM IBMX and 50 μM genistein final concentration. The high content screening assay was performed using a Cellomics platform. Iodide was added robotically to a final concentration of 50 mM and the resulting decrease in fluorescence was measured. Images were taken at time 0 and stored for subsequent use when calculating a mask so that only those cells that express YFP at time 0 are measured. The quenching was detected in 15 images taken over the course of an experiment lasting 40 seconds. Each test compound was compared to the following two controls: a negative control without drugs to assess photobleaching that may occur when the same field of view is repeatedly imaged, and a positive control with cells treated with a known potentiator. Results were generated from 150-300 cells per well.

ΔF508-CFTR = ΔF508-CFTR (Homo sapiens, UniProt P13569, DEL508-508); assay type: cell-based; set-up: which was then ligated into full length pNUT-CFTR linearized using Hpa1 and Pml1; expressed in transfected cells; conditions: for hit in screen (class letter): BHK cells
Chain of ΔF508-CFTR (P13569 with tags, fused parts or gaps DEL508-508): as above
Method: BHK cells expressing 3HA-tagged ΔF508-CFTR between passages 5-8 were seeded in 96-well plates (Corning half area, black-sided, clear bottom) at 15,000 cells per well and incubated with culture medium for 24 h at 37° C. Each well was then treated with a different test compound (80 compounds per plate) for 24 h at 20 μM final concentration. The remaining 16 wells on each plate were used for control conditions. […] Cells were fixed in a 4% paraformaldehyde solution, washed with PBS, and blocked with PBS containing 5% fetal bovine serum (FBS) for 1 hat 4° C.
Blocking solution was replaced with 15 μl of primary antibody solution containing 1% FBS and mouse monoclonal anti-HA antibody (1:150 dilution, Sigma) in PBS. The plates were sealed and left at 4° C. overnight. After three washes with 100 μl PBS, cells were incubated for 1 h with 15 μl of secondary antibody solution containing 1% FBS and anti-mouse IgG conjugated with FITC (1:100 dilution, Sigma) in PBS. Cells were again washed three times with 100 μl of PBS and analyzed in a plate reader (Analyst™ HT96.384, Biosystems; 488 nm excitation/510 nm emission). […] The mean fluorescence of four untreated wells was used as the background signal when calculating deviations of the 80 compound-treated wells. Hits were then cherry-picked into reservoir plates and re-tested in duplicate using the same assay.
BHK cells expressing ΔF508-CFTR were incubated with test compounds (20 μM) for 24 hours at 37° C. in a 96 well format. Plasma membrane expression of ΔF508-CFTR was then assayed by immunofluorescence using a primary antibody directed against the inserted 3HA tag and a secondary antibody conjugated with a fluorophore (FITC). […] The positive compounds were selected and retested in duplicate to obtain an N of 3. At the re-screening stage, the intrinsic fluorescence of each potential hit was also measured and the fluorescent ones were not considered further.
Screening was performed using BHK cells that stably express F508-CFTR bearing three tandem haemagglutinin-epitope tags (3HA) and linker sequences in the fourth extracellular loop after amino acid 901 (Howard et al., 1995; Carlile et al., 2007; Robert et al., 2008). […] Screening was performed using the Prestwick Chemical Library of 1120 high-purity compounds.

[1] = HEK293, 10 μM, 24 h, nc = 100% pc = 69.2
[2] = Prestwick library, initial corrector assay
[3] = Prestwick library, initial corrector assay, standard deviations above untreated controls
[4] = 10 μM, 24 h, nc = 100% pc = 69.2

Row | Structure (SMILES) | remaining activity at 10 µM (F508del CFTR; [1]) [%] | hit in screen (class letter) (ΔF508-CFTR; [2]) | hit in screen (score) (ΔF508-CFTR; [3]) | % YFP quench (F508del CFTR; [4]) [%] | Bart's scores (F508del CFTR; Functional assay, Prestwick compounds, positive tests / tests) | remaining activity at 10 µM (F508del CFTR; HEK293, 24 h) [%] | hit in screen (score) (ΔF508-CFTR) | signal in the trafficking assay (ΔF508-CFTR)
1 | c1ccc2[nH]c(-c3cscn3)nc2c1 [Tiabendazole] | 907 | W (Medium and weak hits were defined as compounds giving a cell fluorescence signal that was between 2 and 3 or 1 and 2 standard deviations, respectively, above untreated control wells) | 1.0 |  |  |  |  | 
2 | CC1=CC(=O)C2=C(C)C[C@H](O)[C@@H]3[C@H](OC(=O)[C@H]3C)[C@H]12 [Austricine hydrate] | 91 | W (Medium and weak hits were defined as compounds giving a cell fluorescence signal that was between 2 and 3 or 1 and 2 standard deviations, respectively, above untreated control wells) | 1.1 |  |  |  |  | 
3 | CCN(CC)C(=O)N1CCN(C)CC1 [Diethylcarbamazine citrate] | 907 | W (Medium and weak hits were defined as compounds giving a cell fluorescence signal that was between 2 and 3 or 1 and 2 standard deviations, respectively, above untreated control wells) | 1.2 |  |  |  |  | 
4 | CCCCOc1ccc(OCCCN2CCOCC2)cc1 [Pramoxine hydrochloride] | 89 | W (Medium and weak hits were defined as compounds giving a cell fluorescence signal that was between 2 and 3 or 1 and 2 standard deviations, respectively, above untreated control wells) | 1.2 |  |  |  |  | 
5 | Cl.OC(CCN1CCCC1)(c1ccccc1)C1CCCCC1 (stereo not shown) [Procycildine hydrochloride] |  | W (Medium and weak hits were defined as compounds giving a cell fluorescence signal that was between 2 and 3 or 1 and 2 standard deviations, respectively, above untreated control wells) | 1.1 | 92 |  |  |  | 
6 | C[N+](C)(C)CCCCCC[N+](C)(C)C.O.O.[Br-].[Br-] [Hexamethonium dibromide dihydrate] |  | W (Medium and weak hits were defined as compounds giving a cell fluorescence signal that was between 2 and 3 or 1 and 2 standard deviations, respectively, above untreated control wells) | 1.1 | 98 |  |  |  | 
7 | COC1=CC(=O)O[C@@H](/C=C/c2ccccc2)C1 [Kawain] | 111 | W (Medium and weak hits were defined as compounds giving a cell fluorescence signal that was between 2 and 3 or 1 and 2 standard deviations, respectively, above untreated control wells) | 1.1 |  |  |  |  | 
8 | Cc1oncc1C(=O)Nc1ccc(C(F)(F)F)cc1 [Leflunomide] | 107 | W (Medium and weak hits were defined as compounds giving a cell fluorescence signal that was between 2 and 3 or 1 and 2 standard deviations, respectively, above untreated control wells) | 1.0 |  |  |  |  | 
9 | C[C@]12C[C@H](O)[C@H]3[C@@H](CCC4=CC(=O)CC[C@@]43C)[C@@H]1CC[C@@H]2C(=O)CO [Corticosterone] | 90 | W (Medium and weak hits were defined as compounds giving a cell fluorescence signal that was between 2 and 3 or 1 and 2 standard deviations, respectively, above untreated control wells) | 1.1 |  |  |  |  | 
10 | COc1cc(C)nc(-n2nc(C)cc2OC)n1 [Epirizole] | 115 | W (Medium and weak hits were defined as compounds giving a cell fluorescence signal that was between 2 and 3 or 1 and 2 standard deviations, respectively, above untreated control wells) | 1.3 |  | 0/5 |  |  | 
11 | Nc1ncnc2c1ncn2[C@@H]1O[C@H](COP(=O)(O)O)[C@@H](O)[C@H]1O.O [Adenosine 5′-monophosphate monohydrate] | 78 | W (Medium and weak hits were defined as compounds giving a cell fluorescence signal that was between 2 and 3 or 1 and 2 standard deviations, respectively, above untreated control wells) | 1.1 |  |  |  |  | 
12 | CCN1C[C@]2(COC)CC[C@H](O)[C@@]34C5C[C@@H]6[C@@H](OC)C[C@](O)(C(CC23)C14)C5[C@H]6OC(C)=O (stereo partly shown) [Condelphine] |  | W (Medium and weak hits were defined as compounds giving a cell fluorescence signal that was between 2 and 3 or 1 and 2 standard deviations, respectively, above untreated control wells) | 1.6 |  |  | 97 |  | 
13 | CN(Cc1cnc2nc(N)nc(N)c2n1)c1ccc(C(=O)N[C@@H](CCC(=O)O)C(=O)O)cc1 (racemic) [Amethopterin (R, S)] |  | W (Medium and weak hits were defined as compounds giving a cell fluorescence signal that was between 2 and 3 or 1 and 2 standard deviations, respectively, above untreated control wells) | 1.2 | 109 |  |  |  | 
14 | C[C@]12CC[C@@H]3c4ccc(OS(=O)(=O)O)cc4CC[C@H]3[C@@H]1CCC2=O [Estropipate] | 83 | W (Medium and weak hits were defined as compounds giving a cell fluorescence signal that was between 2 and 3 or 1 and 2 standard deviations, respectively, above untreated control wells) | 1.0 |  |  |  |  | 
15 | CCN(CC)CC#CCOC(=O)C(O)(c1ccccc1)C1CCCCC1 (stereo not shown) [Oxybutynin chloride] | 83 | W (Medium and weak hits were defined as compounds giving a cell fluorescence signal that was between 2 and 3 or 1 and 2 standard deviations, respectively, above untreated control wells) | 1.2 |  |  |  |  | 
16 | CC(C)(C(=O)c1cccnc1)c1cccnc1 [Metyrapone] | 98 | W (Medium and weak hits were defined as compounds giving a cell fluorescence signal that was between 2 and 3 or 1 and 2 standard deviations, respectively, above untreated control wells) | 1.4 |  |  |  |  | 
17 | C[C@]12CC[C@H](O)C[C@@H]1CC[C@@H]1[C@@H]2CC[C@]2(C)C(=O)CC[C@@H]12 [Epiandrosterone] |  |  |  |  |  | 93 | W 1.0 | consistently elevated signal
18 | Cc1cc(N)c2ccccc2[n+]1CCCCCCCCCC[n+]1c(C)cc(N)c2ccccc21.[Cl-].[Cl-] [Dequalinlum dichloride] |  | M (Medium and weak hits were defined as compounds giving a cell fluorescence signal that was between 2 and 3 or 1 and 2 standard deviations, respectively, above untreated control wells) | 2.2 | 102 |  |  |  | 
19 | Cc1scc2c1N(C(=O)CN1CCN(C)CC1)c1ccccc1NC2=O [Telenzepine dihydrochloride] | 85 | W (Medium and weak hits were defined as compounds giving a cell fluorescence signal that was between 2 and 3 or 1 and 2 standard deviations, respectively, above untreated control wells) | 1.3 |  |  |  |  | 
